# Data reported in US20150141411A1, “SUBSTITUTED 3,4-DIHYDRO-2H-PYRIDO[1,2-A]PYRAZINE-1,6-DIONE DERIVATIVES USEFUL FOR THE TREATMENT OF (INTER ALIA) ALZHEIMER'S DISEASE” (Janssen Pharmaceuticals, Inc., priority 2012, published 2015).
# What was measured:
# [1] = biological target: T1, γ-secretase (Homo sapiens, UniProt P49768); test: Screening for γ-secretase-modulating activity: Aβtotal in supernatant of SKNBE2 cells carrying hAPP 695 wild type (Alphalisa); type: cell-based; conditions: SKNBE2 human neuroblastoma cells carrying hAPP 695 wild type, overnight incubation, Aβtotal in cell supernatant
# T1 construct: endogenous in cells; host or cells: SKNBE2 human neuroblastoma cells (carrying hAPP 695 wild type as substrate)
# Protocol: (§1) Screening was carried out using SKNBE2 human neuroblastoma cells carrying the hAPP 695—wild type, grown in Dulbecco's Modified Eagle's Medium/Nutrient mixture F-12 (DMEM/NUT-mix F-12) (HAM) provided by Invitrogen (cat no. 10371-029) containing 5% Serum/Fe supplemented with 1% non-essential amino acids, 1-glutamine 2 mM, Hepes 15 mM, penicillin 50 U/ml (units/ml) en streptomycin 50 μg/ml. Cells were grown to near confluency.
# (§2) The screening was performed using a modification of the assay as described in Citron et al (1997) Nature Medicine 3: 67. Briefly, cells were plated in a 384-well plate at 10^4 cells/well in Ultraculture (Lonza, BE12-725F) supplemented with 1% glutamine (Invitrogen, 25030-024), 1% non-essential amino acid (NEAA), penicillin 50 U/ml en streptomycin 50 μg/ml in the presence of test compound at different test concentrations. The cell/compound mixture was incubated overnight at 37° C., 5% CO2. The next day the media were assayed by two sandwich immuno-assays, for Aβ42 and Aβ total.
# (§3) Aβtotal and Aβ42 concentrations were quantified in the cell supernatant using the Aphalisa technology (Perkin Elmer). Alphalisa is a sandwich assay using biotinylated antibody attached to streptavidin coated donorbeads and antibody conjugated to acceptor beads. In the presence of antigen, the beads come into close proximity. The excitation of the donor beads provokes the release of singlet oxygen molecules that trigger a cascade of energy transfer in the acceptor beads, resulting in light emission. To quantify the amount of Aβ42 in the cell supernatant, monoclonal antibody specific to the C-terminus of Aβ42 (JRF/cAβ42/26) was coupled to the receptor beads and biotinylated antibody specific to the N-terminus of Aβ (JRF/AβN/25) was used to react with the donor beads. To quantify the amount of Aβtotal in the cell supernatant, monoclonal antibody specific to the N-terminus of Aβ (JRF/AβN/25) was coupled to the receptor beads and biotinylated antibody specific to the mid region of Aβ (biotinylated 4G8) was used to react with the donor beads.
# (§4) To obtain the values reported in Table 3, the data are calculated as percentage of the maximum amount of amyloid Beta 42 measured in the absence of the test compound. The sigmoidal dose response curves were analyzed using non-linear regression analysis with percentage of the control plotted against the log concentration of the compound. A 4-parameter equation was used to determine the IC50.
# [2] = biological target: T1, γ-secretase; test: Screening for γ-secretase-modulating activity: Aβ42 in supernatant of SKNBE2 cells carrying hAPP 695 wild type (Alphalisa); type: cell-based; conditions: SKNBE2 human neuroblastoma cells carrying hAPP 695 wild type, overnight incubation, Aβ42 in cell supernatant
# Protocol: as §1, §2, §3, §4
IC50 [1],IC50 [2],Structure (SMILES)
> 10000 nM,> 10000 nM,Cc1cn(-c2ccc3n(c2=O)CCN(c2ccc(F)cc2C)C3=O)cn1 [compound 41]
> 10000 nM,540 nM,Cc1cn(-c2ccc3n(c2=O)C[C@@H](CO)N(Cc2cc(C(F)(F)F)cc(C(F)(F)F)c2)C3=O)cn1 [compound 45]
> 10000 nM,260 nM,COC[C@@H]1Cn2c(ccc(-n3cnc(C)c3)c2=O)C(=O)N1Cc1cc(C(F)(F)F)cc(C(F)(F)F)c1 [compound 47]
> 10000 nM,580 nM,Cc1cn(-c2ccc3n(c2=O)C[C@@H](CN(C)C)N(Cc2cc(C(F)(F)F)cc(C(F)(F)F)c2)C3=O)cn1 [compound 48]
> 10000 nM,3390 nM,CNC[C@@H]1Cn2c(ccc(-n3cnc(C)c3)c2=O)C(=O)N1Cc1cc(C(F)(F)F)cc(C(F)(F)F)c1 [compound 49]
> 10000 nM,500 nM,Cc1cn(-c2ccc3n(c2=O)CCN(C(c2cc(C(F)(F)F)cc(C(F)(F)F)c2)C2CCOCC2)C3=O)cn1 (stereo not drawn) [compound 51]
> 10000 nM,1260 nM,COCC(c1cc(C(F)(F)F)cc(C(F)(F)F)c1)N1CCn2c(ccc(-n3cnc(C)c3)c2=O)C1=O (stereo not drawn) [compound 54]
> 10000 nM,660 nM,Cc1cc(CN2CCn3c(ccc(-n4cnc(C)c4)c3=O)C2=O)cc(C(F)(F)F)c1 [compound 60]
> 10000 nM,480 nM,Cc1cn(-c2ccc3n(c2=O)C[C@@H](C)N(Cc2cccc(C(F)(F)F)c2C)C3=O)cn1 [compound 61]
> 10000 nM,690 nM,Cc1cn(-c2ccc3n(c2=O)CCN(Cc2cccc(C(F)(F)F)c2Cl)C3=O)cn1 [compound 64]
> 10000 nM,3890 nM,COc1cccc(CN2CCn3c(ccc(-n4cnc(C)c4)c3=O)C2=O)c1 [compound 66]
> 10000 nM,280 nM,Cc1cn(-c2ccc3n(c2=O)C[C@@H](C)N(Cc2cc(C(F)(F)F)ccc2Cl)C3=O)cn1 [compound 71]
> 10000 nM,190 nM,Cc1cn(-c2ccc3n(c2=O)C[C@@H](C)N(Cc2cc(C(F)(F)F)ccc2C)C3=O)cn1 [compound 72]
> 10000 nM,190 nM,CCOCc1cc(CN2C(=O)c3ccc(-n4cnc(C)c4)c(=O)n3C[C@H]2C)cc(C(F)(F)F)c1 [compound 76]
> 10000 nM,190 nM,COc1cc(C)c(CN2C(=O)c3ccc(-n4cnc(C)c4)c(=O)n3C[C@H]2C)cc1C(C)C [compound 77]
> 10000 nM,280 nM,Cc1cn(-c2ccc3n(c2=O)C[C@@H](C)N(Cc2cccc(OC(F)(F)F)c2)C3=O)cn1 [compound 79]
> 10000 nM,220 nM,Cc1cn(-c2ccc3n(c2=O)C[C@@H](C)N(Cc2cc(N4CCC(C(F)(F)F)CC4)ccc2Cl)C3=O)cn1 [compound 81]
> 10000 nM,1350 nM,Cc1cn(-c2ccc3n(c2=O)C[C@@H](C)N(Cc2cccc(-n4nc(C)cc4C)c2)C3=O)cn1 [compound 83]
> 10000 nM,60 nM,Cc1cn(-c2ccc3n(c2=O)C[C@@H](C)N(Cc2ccc(Cl)c(N4CCCCC4)c2)C3=O)cn1 [compound 85]
> 10000 nM,30 nM,Cc1cn(-c2ccc3n(c2=O)C[C@@H](C)N(Cc2cc(N4CCCCC4)cc(C(F)(F)F)c2)C3=O)cn1 [compound 86]
> 10000 nM,7760 nM,Cc1cn(-c2ccc3n(c2=O)CCN(Cc2cccc(-c4ccccc4)c2)C3=O)c(C)n1 [compound 87]
> 10000 nM,490 nM,Cc1ccc2cc(CN3CCn4c(ccc(-n5cnc(C)c5)c4=O)C3=O)ccc2c1 [compound 94]
> 10000 nM,2880 nM,Cc1cn(-c2ccc3n(c2=O)CCN(Cc2nccc(OCC(F)(F)F)c2C)C3=O)cn1 [compound 98]
> 10000 nM,> 10000 nM,Cc1cn(-c2ccc3n(c2=O)CCN(CCc2c[nH]c4ccccc24)C3=O)cn1 [compound 104]
> 10000 nM,4790 nM,Cc1nccn1-c1ccc2n(c1=O)CCN(Cc1cccc(-c3ccccc3)c1)C2=O [compound 108]
> 10000 nM,2090 nM,O=C1c2ccc(-n3ccnc3)c(=O)n2CCN1Cc1cccc(-c2ccccc2)c1 [compound 109]

IC50 [1],IC50 [2],Structure (SMILES)
> 10000 nM,1910 nM,Cc1cn(-c2ccc3n(c2=O)C[C@@H](C)N(Cc2ccc(C)c(-n4cccn4)c2)C3=O)cn1 [compound 114]
> 10000 nM,> 10000 nM,Cc1cncn1-c1ccc2n(c1=O)CCCN(Cc1ccc(Cl)c(Cl)c1)C2=O [compound 122]
> 10000 nM,190 nM,Cc1cn(-c2ccc3n(c2=O)CCC(C)N(Cc2cc(C(F)(F)F)cc(C(F)(F)F)c2)C3=O)cn1 (stereo not drawn) [compound 123]
> 10000 nM,50 nM,Cc1cn(-c2ccc3n(c2=O)CC(C)N(Cc2c[nH]c4cc(Br)ccc24)C3=O)cn1 (stereo not drawn) [compound 125]
> 10000 nM,30 nM,Cc1cn(-c2ccc3n(c2=O)C[C@@H](C)N(Cc2cn(C)c4ccc(Cl)cc24)C3=O)cn1 [compound 137]
> 10000 nM,40 nM,Cc1cn(-c2ccc3n(c2=O)C[C@@H](C)N(Cc2c[nH]c4ccc(Cl)cc24)C3=O)cn1 [compound 138]
> 10000 nM,950 nM,Cc1cn(-c2ccc3n(c2=O)C[C@@H](C)N(Cc2cc(F)cc(OC(F)(F)F)c2)C3=O)cn1 [compound 139]
> 10000 nM,70 nM,Cc1cn(-c2ccc3n(c2=O)C[C@@H](C)N(Cc2cc(Br)cc(OC(F)(F)F)c2)C3=O)cn1 [compound 152]
> 10000 nM,30 nM,Cc1cn(-c2ccc3n(c2=O)C[C@@H](C)N(CCc2cc(OC(C)C)cc(C(F)(F)F)c2)C3=O)cn1 [compound 156]
> 10000 nM,280 nM,Cc1cn(-c2cc(Cl)c3n(c2=O)C[C@@H](C)N(Cc2cc(C(F)(F)F)cc(C(F)(F)F)c2)C3=O)cn1 [compound 159]
> 10000 nM,790 nM,Cc1cn(-c2c(C)cc3n(c2=O)C[C@@H](C)N(Cc2cc(C(F)(F)F)cc(C(F)(F)F)c2)C3=O)cn1 [compound 161]
> 10000 nM,100 nM,Cc1cn(-c2ccc3n(c2=O)C[C@@H](C)N(Cc2ccc(C)c(OCC4CC4)c2)C3=O)cn1 [compound 162]
> 10000 nM,170 nM,Cc1cn(-c2ccc3n(c2=O)C[C@@H](C)N(Cc2cc(OC(C)C)c(Cl)cc2F)C3=O)cn1 [compound 163]
> 10000 nM,20 nM,Cc1cn(-c2ccc3n(c2=O)C[C@@H](C)N(Cc2csc4ccc(Cl)cc24)C3=O)cn1 [compound 165]
> 10000 nM,1200 nM,Cc1cn(-c2ccc3n(c2=O)CC(C(C)O)N(Cc2cc(C(F)(F)F)cc(C(F)(F)F)c2)C3=O)cn1 (stereo not drawn) [compound 167]
> 10000 nM,40 nM,Cc1cn(-c2ccc3n(c2=O)C[C@@H](C)N(Cc2ccc(C(F)(F)F)c(N4CCCCC4)c2)C3=O)cn1 [compound 171]
> 10000 nM,1260 nM,C[C@@H]1Cn2c(ccc(-n3ccnc3)c2=O)C(=O)N1Cc1cc(C(F)(F)F)cc(C(F)(F)F)c1 [compound 173]
5000 nM,10 nM,Cc1cn(-c2ccc3n(c2=O)C[C@@H](C)N(Cc2cn(C)c4cc(F)c(C5CC5)cc24)C3=O)cn1 [compound 174]
> 10000 nM,1550 nM,Cc1cn(-c2ccc3n(c2=O)C[C@@H](C)N(CCc2ccccc2)C3=O)cn1 [compound 176]
> 10000 nM,40 nM,Cc1cn(-c2ccc3n(c2=O)CC(C)N(Cc2cn(C)c4cc(Br)ccc24)C3=O)cn1 (stereo not drawn) [compound 177]
> 10000 nM,70 nM,Cc1cn(-c2ccc3n(c2=O)CC(C)N(Cc2c[nH]c4cc(Cl)ccc24)C3=O)cn1 (stereo not drawn) [compound 179]
6610 nM,10 nM,Cc1cn(-c2ccc3n(c2=O)C[C@@H](C)N(Cc2c(C)[nH]c4ccc(C(F)(F)F)cc24)C3=O)cn1 [compound 180]
4570 nM,10 nM,Cc1cn(-c2ccc3n(c2=O)CC(C)N(Cc2c(C)n(C)c4ccc(C(F)(F)F)cc24)C3=O)cn1 (stereo not drawn) [compound 181]
2510 nM,10 nM,CCn1c(C)c(CN2C(=O)c3ccc(-n4cnc(C)c4)c(=O)n3C[C@H]2C)c2cc(C(F)(F)F)ccc21 [compound 182]
> 10000 nM,60 nM,Cc1cn(-c2ccc3n(c2=O)C[C@@H](C)N(Cc2c[nH]c4c(I)cccc24)C3=O)cn1 [compound 197]
